This is an account of results in ChEMBL document CHEMBL1156691, “Structure of a novel thrombin inhibitor with an uncharged D-amino acid as P1 residue” (Eur J Med Chem, 2008).

Test [1] addresses T1, Prothrombin (Homo sapiens, UniProt P00734). Put plainly: Inhibition of human thrombin.
Test [2] concerns the target T1, Prothrombin. Put plainly: Binding affinity to thrombin.

On Prothrombin [1], `N=C(N)NCCCC[C@@H](NC(=O)[C@@H](Cc1ccc(O)cc1)NC(=O)[C@@H]1CCN1C(=O)[C@H](CC1CCCCC1)NC(=O)[C@H]1CC[C@H](CNC(=N)N)CC1)C(N)=O` showed a Ki of 3 nM.

In turn, `NCCc1c[nH]c2cc(F)ccc12` had a Kd on Prothrombin [2] of 6.9 mM.

A word on the Ki: it is a dissociation constant, usually derived from enzyme kinetics or from competition with a known ligand. Higher therefore signals lower affinity. What is called Kd is a measure of binding affinity in units of concentration. High values mean weaker binding, low ones tighter binding.
